Measurements from patent US10172876B2, “Use of ginsenoside M1 for treating IgA nephropathy” (priority 2014, dated 2019).

Tests used:
[1] = system: mice model of IgA nephropathy (IgAN); assay: Renal histopathology (H&E) in IgAN mice; format: in vivo; settings: day 28, 60 mg/kg daily oral gavage, vs disease control (FIG. 3)
Procedure: (§1) B-cell-deficient mice were obtained from the Academia Sinica (Professor John T. Kung, Institute of Molecular Biology, Taipei, Taiwan) and maintained at the animal center of the National Defense Medical Center (Taipei, Taiwan). IgAN was induced by daily injection of purified IgA anti-phosphorylcholine antibodies and pneumococcal C-polysaccharide antigen (PnC). All animal experiments were performed with the approval of the Institutional Animal Care and Use Committee of the National Defense Medical Center and complied with the NIH Guide for the Care and Use of Laboratory Animals.
(§2) Ginsenoside M1, 20-O-β-D-glucopyranosyl-20(S)-protopariaxadiol (named LCHK168 below), was prepared by methods known in the art, such as those described in Taiwan Patent Application No. 094116005 (1280982) and U.S. Pat. No. 7,932,057. The mice were treated daily with 60 mg/kg LCHK168 or with the vehicle, by oral gavage throughout the experiment, the first dose being given 2 day before disease induction.
Body weight was measured weekly. Urine samples were collected in metabolic cages weekly and urine protein was determined. […] The percentage of glomeruli showing proliferation, neutrophil infiltration, sclerosis, or periglomerular inflammation was determined by counting 50 randomly sampled glomeruli by light microscopy at a magnification of 400×.

[2] = system: mice model of IgA nephropathy (IgAN); assay: Urine protein and renal function in IgAN mice; format: in vivo
Procedure: as §1, §2
Body weight was measured weekly. Urine samples were collected in metabolic cages weekly and urine protein was determined. Serum samples were collected on days 14 and 28 to measure serum levels of blood urea nitrogen (BUN) and creatinine (Cr). For renal histopathology, the tissues were fixed in 10% buffered formalin and embedded in paraffin, and then sections (3 μm) were prepared and stained with hematoxylin and eosin (H&E). The percentage of glomeruli showing proliferation, neutrophil infiltration, sclerosis, or periglomerular inflammation was determined by counting 50 randomly sampled glomeruli by light microscopy at a magnification of 400×.

Dendritic cells (DCs) = assay: IgA-IC stimulated dendritic cell maturation by flow cytometry; format: cell-based, mouse; settings: LCHK168 1, 2 μM, flow cytometry (FIG. 13)
Procedure: (§3) Dendritic cells (DCs) maturation was determined by the upregulation of costimulatory molecule expression. Cells were treated with IgA-IC, LCHK168 (1, 2 μM) and stained with mAbs specific for mouse CD40, CD80, and CD86 and then analyzed by flow cytometry.

NLRP3 = assay: Western blot of NLRP3 in IgA-IC stimulated DCs; format: cell-based, mouse; settings: β-actin loading control (FIG. 14)
Procedure: as §3
Each protein sample was run on a 8% SDS-PAGE gel and the proteins were electro blotted on to a polyvinylidene difluoride membrane, which was then incubated for 1 h at room temperature in blocking buffer (Tris-buffered saline containing 5% skim milk) and then overnight at 4° C. with rabbit antibodies against NLRP3 or β-actin. After being washed, the membrane was incubated for 1 h at room temperature with HRP-conjugated goat anti-rabbit IgG antibody in the same buffer; then bound antibody was detected using UVP Biospectrum.

TLR2 = assay: Real-time RT-PCR of renal TLR2 mRNA in IgAN mice; format: in vivo; settings: 60 mg/kg daily oral gavage
Procedure: as §1, §2
Renal cortex RNA was extracted using TRIzol reagent according to the manufacturer's instructions, and RT-PCR was used to measure TLR2 gene expression. […] Real-time quantification was performed using a Applied Biosystems according to the manufacturer's instructions. […]

[3] = system: reactive oxygen species (ROS); assay: Measurement of reactive oxygen species (ROS) in renal tissue of IgAN mice; format: in vivo; settings: vs disease control (FIG. 10)
Procedure: as §1
(§4) Ginsenoside M1, 20-O-β-D-glucopyranosyl-20(S)-protopariaxadiol (named LCHK168 below), was prepared by methods known in the art, such as those described in Taiwan Patent Application No. 094116005 (1280982) and U.S. Pat. No. 7,932,057. […]
To measure ROS levels in renal tissue, the samples were incubated at room temperature with Krebs-Hepes buffer containing 1.25 mM lucigenin (Sigma, St. Louis, Mo., USA) as substrate, and luminescence counts were measured in duplicate at 15-s intervals on a multilabel microplate reader (Hidex). ROS activity was expressed as relative luminescence units (RLU) per 15 minutes per milligram of organ dry weight (i.e., RLU/15 min/mg) or as RLU/15 min/ml.

[4] = system: mice model of IgA nephropathy (IgAN); assay: IHC of renal tissue for infiltrating leukocytes and Collagen IV in IgAN mice; format: in vivo; settings: day 28, 60 mg/kg daily oral gavage
Procedure: as §1, §2
For IHC, formalin-fixed and paraffin-embedded tissue sections or frozen sections were incubated overnight at 4. C with anti-bodies against CD3, F4/80, CD4, CD8, CD11c, Collagen IV, diluted in DAKO antibody dilution buffer (DAKO), and then for 1 h at room temperature with horseradish peroxidase (HRP)-conjugated second antibodies (DAKO) in the same buffer; in the case of the HRP-conjugated antibodies, DAB (DAKO) was also added. Hematoxylin was used to counterstain nuclei. Positive cells was counted at a magnification of 400× in 20 consecutive glomeruli or in 20 randomly selected fields of the tubule interstitial compartment in the cortical area by Pax-It quantitative image analysis software.

memory CD4+ T cells = assay: Flow cytometry of splenocytes for memory CD4+ T cells in IgAN mice; format: in vivo; settings: 60 mg/kg daily oral gavage, vs disease control (FIG. 11)
Procedure: as §1, §4
Splenocytes from the mice were treated with Tris-buffered ammonium chloride to eliminate erythrocytes, washed and resuspended in RPMI1640 medium supplemented with 10% fetal calf serum, Hepes buffer, L-glutamine, and penicillin/streptomycin. The cells were triple-stained for activated T cell subtypes using FITC-conjugatedanti-mouse CD44, phycoerythrin-conjugated anti-mouse CD62 antibodies, and allophycocyanin-conjugated anti-mouse CD4 and analyzed using a FACSCalibur.

[5] = day 14, 60 mg/kg daily oral gavage, between disease control, IgAN+LCHK168 and normal control

For `CC(C)=CCC[C@](C)(O[C@@H]1OC(CO)[C@@H](O)[C@@H](O)C1O)[C@H]1CC[C@]2(C)C1[C@H](O)CC1[C@@]3(C)CC[C@H](O)C(C)(C)C3CC[C@]12C` (stereo partly drawn) [LCHK168, 20-O-β-D-glucopyranosyl-20(S)-protopanaxadiol], the “renal lesion (proliferation, crescents, sclerosis, neutrophil infiltration, periglomerular leukocyte infiltration, tubular atrophy)” value [1] was “significantly inhibited”, the “urine protein levels (ratio of urine protein to creatinine)” value ([2]; IgAN mice, 60 mg/kg daily oral gavage, day 14 to day 28, vs vehicle-treated disease control (FIG. 1)) was “markedly inhibited” and the “proteinuria compared to normal untreated controls” value ([2]; IgAN mice, 60 mg/kg daily oral gavage, vs normal untreated controls (FIG. 1)) was “mild proteinuria”. The “serum levels of BUN” value [2, 5] was “no significant difference”, the “serum levels of Cr” value [2, 5] was “no significant difference” and the “serum levels of BUN” value ([2]; day 28, 60 mg/kg daily oral gavage, vs disease control (FIG. 2A)) was “much better renal function”. For the same molecule, the “serum levels of Cr” value ([2]; day 28, 60 mg/kg daily oral gavage, vs disease control (FIG. 2B)) was “much better renal function”, the “expression level of CD40 in DCs” value (Dendritic cells (DCs)) was “significantly lowered” and the “expression level of CD80 in DCs” value (Dendritic cells (DCs)) was “significantly lowered”. The “expression level of CD86 in DCs” value (Dendritic cells (DCs)) was “significantly lowered”, the “NLRP3 protein expression in DCs” value (NLRP3) was “significantly decreased” and the “TLR2 mRNA levels in the kidney (relative to GAPDH)” value (TLR2; 14 days, difference vs IgAN control mice (FIG. 12)) was “not statistically significant”. For the same molecule, the “TLR2 mRNA levels in the kidney (relative to GAPDH)” value (TLR2; 28 days, vs IgAN control mice (FIG. 12)) was “significantly lower”, the “increase in renal tissues ROS levels” value ([3]; day 14, 60 mg/kg daily oral gavage) was “greatly inhibited” and the “increase in ROS levels in renal tissues” value ([3]; day 28, 60 mg/kg daily oral gavage) was “substantially inhibited”. The “renal infiltration of CD3+ T cells” value ([4]; vs disease control (FIG. 4)) was “significantly decreased”, the “renal infiltration of F4/80+ monocytes/macrophages” value ([4]; vs disease control (FIG. 5)) was “significantly decreased” and the “renal infiltration of CD4+ T cells” value ([4]; vs disease control (FIG. 6)) was “significantly decreased”. For the same molecule, the “renal infiltration of CD8+ T cells” value ([4]; vs disease control (FIG. 7)) was “significantly decreased”, the “renal infiltration of CD11c+ dendritic cells” value ([4]; vs disease control (FIG. 8)) was “significantly decreased” and the “renal fibrosis (Collagen IV staining)” value ([4]; vs disease control (FIG. 9)) was “significantly decreased”. The “memory CD4+ T cells in splenocytes” value (memory CD4+ T cells) was “significant reduction”.
